Reference: a compilation of properties of binary mixtures (doi:10.1016/j.molliq.2012.10.030)

Test: xn = mol fraction of the nth substance listed
Conditions: 101 kPa

Cc1ccccc1N + CC[n+]1ccn(C)c1.F[B-](F)(F)F
speed of sound [m/s]
Conditions | 293.15 K | 298.15 K | 303.15 K | 308.15 K
x1 = 0.0684 | 1639.1 | 1625 | 1612.5 | 1600.1
x1 = 0.0786 | – | 1626.5 | – | 1601.3
x1 = 0.1243 | – | 1634.3 | 1621.2 | 1607.9
x1 = 0.1783 | – | 1645.9 | 1632 | 1618
x1 = 0.2255 | 1668.2 | 1657.2 | 1643.2 | –
x1 = 0.2781 | 1679.5 | 1670.1 | – | 1640.6
x1 = 0.3234 | 1689.5 | – | 1667.1 | 1651.6
x1 = 0.3712 | – | – | 1678 | 1662.1
x1 = 0.4096 | 1706.3 | – | 1685.2 | 1669.1
x1 = 0.4763 | 1716.8 | 1710.8 | – | 1679
x1 = 0.5242 | 1722.8 | 1716 | 1700.5 | 1683.9
x1 = 0.5781 | 1726.3 | 1717.7 | 1701.7 | 1685
x1 = 0.6254 | 1725.7 | – | 1698.4 | –
x1 = 0.6771 | 1723.3 | 1709.7 | 1692.5 | 1675.6
x1 = 0.7226 | 1716.8 | 1700.6 | 1682.6 | 1665.6
x1 = 0.7683 | 1708 | 1689.4 | 1670.5 | 1653.2
x1 = 0.8276 | 1692.8 | 1671.5 | 1651.2 | 1633.6
x1 = 0.8687 | 1679 | 1656.7 | 1635.4 | 1617.4

Nc1ccccc1 + CC[n+]1ccn(C)c1.F[B-](F)(F)F
speed of sound [m/s]
Conditions | 293.15 K | 298.15 K | 303.15 K | 308.15 K
x1 = 0.0697 | – | 1622.2 | 1610.3 | –
x1 = 0.0803 | 1635.7 | 1622.9 | – | 1598.9
x1 = 0.1286 | 1640 | 1626.7 | 1614.7 | 1602.6
x1 = 0.1717 | – | 1631.2 | – | 1606.5
x1 = 0.2251 | 1650.5 | 1637.2 | – | 1612.4
x1 = 0.2724 | 1656.5 | – | 1630.2 | 1617.6
x1 = 0.3253 | 1662.9 | – | 1636.4 | 1624.1
x1 = 0.3805 | 1669.9 | – | 1642.3 | 1630.2
x1 = 0.4288 | 1675 | 1662 | 1647.5 | 1634.5
x1 = 0.4681 | 1679 | 1666.2 | – | 1637.9
x1 = 0.5287 | – | 1670.4 | – | 1642
x1 = 0.5755 | – | 1673.2 | – | 1643
x1 = 0.6258 | – | 1673.9 | – | 1643.3
x1 = 0.6802 | – | 1673.3 | 1655.5 | –
x1 = 0.7231 | – | 1672 | – | 1639.2
x1 = 0.7785 | 1685.7 | 1667.6 | 1648.9 | 1634.7
x1 = 0.8257 | 1681.7 | 1663.2 | 1644.1 | 1628.9
x1 = 0.8697 | – | – | 1638.4 | –

CNc1ccccc1 + CC[n+]1ccn(C)c1.F[B-](F)(F)F
speed of sound [m/s]
Conditions | 293.15 K | 298.15 K | 303.15 K | 308.15 K
x1 = 0.0712 | – | 1614.7 | 1602.2 | 1590.8
x1 = 0.0944 | – | 1613.8 | 1601 | –
x1 = 0.1175 | – | 1613.2 | 1600.3 | 1588.7
x1 = 0.1685 | 1624.3 | 1612.5 | 1599.3 | 1587.6
x1 = 0.2164 | – | – | 1599.5 | 1587
x1 = 0.2818 | 1626.5 | 1613.9 | – | 1587.3
x1 = 0.3365 | 1628.2 | – | 1601.2 | 1587.4
x1 = 0.3805 | 1629.4 | 1616.2 | 1602.2 | –
x1 = 0.4166 | 1630.8 | 1617.3 | 1602.8 | 1587.8
x1 = 0.4775 | 1632.2 | 1617.7 | 1602.8 | 1587.7
x1 = 0.5287 | 1632.6 | 1617.9 | 1602.4 | 1586.3
x1 = 0.5855 | 1631.8 | 1616.5 | 1601.1 | 1584.2
x1 = 0.6144 | 1631 | 1615.8 | 1599.8 | 1583
x1 = 0.6638 | 1629.2 | 1612.8 | 1596.4 | –
x1 = 0.7202 | 1625.3 | 1608.7 | 1591.8 | 1573.8
x1 = 0.7822 | 1618.8 | 1601.9 | 1584.4 | 1566.7
x1 = 0.8343 | 1612 | 1594.6 | 1577.1 | 1558.8
x1 = 0.8775 | 1605.6 | 1587.8 | 1570.3 | 1551.7
